# Test results from the supplement of paper PMC10307832.
# Assays:
# Assay in all cases: relative viability (nuclei count vs DMSO), 5 days (fraction); higher = more cells survive
# [1] = compound: C1COCCN1C2=CC(=O)C3=C(O2)C(=CC=C3)C4=CC=CC5=C4SC6=CC=CC=C56
# In short: (§1)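 Five library-drug doses, separated by factors of √10, were pinned into 1536-well plates holding lung cancer cell lines after an overnight stay at 37 °C. Cells were fixed, permeabilised and Hoechst-stained in one step after 5 days without medium change, then imaged at 4×. Viability compares treated-well with vehicle-well nuclei, counted in MetaXpress, as a median across plates. Passing plates had control CV below 25% and at least one doubling.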
# [2] = compound: CCN(CC)CCCCNc1ncc2cc(-c3cc(OC)cc(OC)c3)c(NC(=O)NC(C)(C)C)nc2n1
# In short: as §1
# [3] = compound: COCC1(CO)C(=O)C2CCN1CC2 [PRIMA-1MET]
# In short: as §1
# [4] = compound: COc1nc(C)cnc1NS(=O)(=O)c1cccnc1-c1ccc(-c2nnco2)cc1 [Zibotentan]
# In short: as §1
# [5] = compound: O=c1cc(-c2cccc3c2Sc2ccccc2S3)oc(N2CCOCC2)c1
# In short: as §1
Cell Line,relative viability ([1]; 0.01 µM),relative viability ([1]; 0.03162 µM),relative viability ([1]; 0.1 µM),relative viability ([1]; 0.3162 µM),relative viability ([1]; 1 µM),relative viability ([2]; 0.01 µM),relative viability ([2]; 0.03162 µM),relative viability ([2]; 0.1 µM),relative viability ([2]; 0.3162 µM),relative viability ([2]; 1 µM),relative viability ([3]; 0.2 µM),relative viability ([3]; 0.6325 µM),relative viability ([3]; 2 µM),relative viability ([3]; 6.325 µM),relative viability ([3]; 20 µM),relative viability ([4]; 0.08 µM),relative viability ([4]; 0.253 µM),relative viability ([4]; 0.8 µM),relative viability ([4]; 2.53 µM),relative viability ([5]; 0.08 µM),relative viability ([5]; 0.253 µM),relative viability ([5]; 0.8 µM),relative viability ([5]; 2.53 µM),relative viability ([5]; 8 µM)
201T,0.988,0.989,1.01,0.954,0.953,0.976,0.972,1.01,0.954,0.898,1.07,0.93,0.758,1.01,0.987,1.01,0.968,0.986,0.978,0.952,0.971,0.844,0.944,1.03
A549,1.01,0.96,1.01,0.973,0.914,0.927,0.97,1.15,1.06,0.876,1.1,0.893,0.944,1.01,0.891,1.04,0.938,0.931,1,0.946,1.22,1.1,0.991,1.07
A-427,0.967,1.05,0.923,0.979,1,1.01,0.896,1.07,1.12,0.844,1.01,0.836,0.831,1.02,0.855,1.08,0.972,0.942,1.01,0.958,1.03,1.09,0.814,1.06
ABC-1,0.917,1.16,1.03,1.04,0.954,0.957,0.838,1.25,1.07,0.869,0.953,0.621,0.903,0.829,0.247,1.06,0.753,0.96,1,0.922,1.09,0.808,0.976,1.12
BEN,0.919,1.04,0.931,1.04,0.897,1,0.89,1,1.01,0.816,0.982,0.825,–,1.06,1.01,1.06,0.782,0.936,0.941,0.876,0.931,0.946,0.996,1.18
CAL-12T,0.924,0.991,1.03,1.05,0.854,0.901,1.03,1.04,1.04,0.974,0.946,0.924,1.02,0.934,0.352,0.965,0.918,0.942,1.03,0.94,1.06,0.952,0.955,0.883
COR-L23,1,1,1.01,1.02,1.06,1.1,1.14,1.33,1.16,1.11,1.33,0.936,0.94,1.11,0.0329,1.06,1.06,1.01,1.03,1.03,1.37,1.12,1.03,1.14
COR-L 105,0.88,0.926,0.943,0.899,0.914,0.838,0.914,1.1,1.06,0.835,1,0.899,0.818,0.835,0.175,1.01,0.861,0.959,1.02,0.811,1.04,0.871,0.835,0.978
Calu-6,1.05,1.06,1.08,1.01,1.05,0.989,1.1,1.11,1.11,1.02,1.06,0.977,0.97,0.948,0.812,1.04,0.932,0.979,1,1,1.1,1.05,0.955,0.924
ChaGo-K-1,1.03,0.956,0.95,1.04,0.954,1.02,0.967,1.11,1.02,0.941,0.994,0.814,0.98,1,0.884,1.04,0.983,0.743,0.943,0.975,0.953,1.03,0.935,1.08
EBC-1,1.04,0.965,0.928,0.932,0.917,1.11,0.988,1.06,1.24,0.953,1.09,0.998,0.933,0.987,0.811,0.944,0.991,1.06,1.09,1.02,1.07,0.98,0.929,0.779
EKVX,0.964,0.966,1.04,0.926,0.924,0.888,0.877,1.02,1.13,0.981,1.17,0.905,0.731,0.975,0.885,0.957,0.944,0.963,1.03,0.974,0.997,0.903,0.888,1.03
EMC-BAC-2,0.94,1.03,1.07,1.09,0.655,–,0.967,1.13,1.13,0.994,1.31,0.916,0.738,1.05,0.971,1.41,–,1.08,1.02,0.927,1.12,0.999,1.03,1.18
EPLC-272H,1.01,0.947,0.676,1.04,0.87,1.04,0.686,1.03,1.05,0.703,0.862,0.839,0.943,1.03,0.831,0.945,1.07,0.863,0.911,0.936,0.939,0.959,0.907,1.18
H3255,0.926,0.96,0.95,1.05,0.812,0.999,0.938,1.07,1.12,0.978,0.992,0.89,0.938,0.989,0.952,0.981,1.03,1.06,0.938,0.929,0.917,0.994,0.994,1.19
HARA,0.859,0.893,0.958,0.981,0.865,1.14,1.06,1.04,0.993,0.636,1.04,0.796,–,0.977,0.997,1.04,0.86,0.951,1,0.903,1.12,0.94,0.767,0.843
HCC-15,0.963,1.14,1.08,0.968,1.03,1.08,1.03,1.08,1.2,0.957,0.967,0.856,0.936,1.01,0.874,0.995,0.994,1.09,1.01,0.954,1.13,1.06,0.94,1.06
HCC-44,0.981,1.04,1.01,0.979,0.933,0.982,0.976,1.07,1.05,1.06,1.05,0.921,1.04,0.922,0.974,1.07,0.935,0.978,0.986,0.956,1.04,0.919,0.905,1.04
HCC-78,1.07,0.94,0.856,0.886,0.774,0.879,0.906,1.06,1.08,0.917,1.15,0.925,0.724,1.03,0.474,1.03,0.942,0.937,0.782,0.949,1.09,0.75,0.871,1.03
HCC-366,1.02,1.01,1.09,1.02,1.02,1.03,1.05,1.13,1.02,1,1.08,0.991,–,1.06,0.854,1.03,0.992,0.877,1.01,0.999,1.08,1.09,1.03,1.06
HCC-827,1.04,1.11,1.02,1.06,0.992,1.04,1.07,1.08,1.06,1,0.986,0.952,0.791,1.02,1.02,1.05,1.04,1.05,1.01,1.04,1.07,1.05,0.773,1.06
HOP-62,1.08,1,0.997,0.954,0.981,1.06,1.09,1.21,1.06,1.05,1.06,0.989,0.915,1.14,0.744,1.03,1.03,1.16,1.01,1.03,1.11,1.13,0.886,1.14
IA-LM,0.997,0.894,0.96,0.862,0.825,1.02,0.879,0.916,1.25,0.883,0.995,0.813,1.02,1.01,0.958,0.937,0.938,1,0.972,0.987,1.05,0.887,0.805,1.12
LC-2-ad,1.01,1.07,1.01,1.01,1.01,1.02,1.05,1.1,1.15,0.88,1.03,0.84,0.819,1.05,0.935,1.03,0.868,0.993,1.03,0.924,1.1,1.06,0.967,1.02
LCLC-97TM1,0.978,0.973,0.969,0.953,1.04,0.725,0.81,1.11,1.03,0.864,0.845,0.738,1.03,0.963,0.468,0.979,0.86,1.06,1.04,0.971,0.962,0.929,0.794,1.09
LCLC-103H,1.06,1.02,1.01,0.903,0.997,1.01,1.01,1.02,0.952,0.687,1.04,0.875,0.805,1.02,0.993,1.08,0.98,0.923,1.01,0.96,1.01,1,0.953,1.05
LK-2,1.03,1.07,1.12,0.97,1.07,1.06,0.944,0.903,0.709,0.312,1.06,0.925,0.602,0.514,0.197,1.24,0.923,0.906,0.953,1.09,1.16,1.06,0.9,1.45
LOU-NH91,0.905,0.974,0.928,1.1,0.92,0.91,0.975,1.03,1.12,0.949,1.15,0.894,0.81,0.999,0.655,0.969,0.876,1.01,1.08,0.92,1.02,0.868,0.79,0.981
